Data from patent US9556228B2 (Universitaet Leipzig, priority 2011, dated 2017).
≈ marks a conversion by molar mass, not a printed value. Peptide text beside a SMILES is read from it.

Columns and labels:
Assay type in all cases: cell-based
[1] = test system: Pseudomonas aeruginosa PAO1 (wt strain); conditions: for Improvement over Native Sequence (SEQ No. 2) P. aeruginosa PAO1 wt: fold, from MIC in 1/8 MHB
Experimental: (§1) The minimum inhibitory concentrations (MIC) of the peptides were determined in a double assay of triplicates using a positive control sample (gentamycin) and a negative control sample (0.9% NaCl solution), according to a modified protocol from Wiegand et al. (Wiegand, 2008).
(§2) For this purpose, the peptides were dissolved in water and were diluted in a double dilution series with 1/8 MH (eight-fold diluted Mueller-Hinton-Medium—2.6 g/L, Merck) in sterile 96-well, plates (Greiner Bio-One GmbH) in twelve dilution steps from 128 μg/mL to 62.5 ng/mL. Overnight cultures were adjusted using ⅛ MHB to approximately 1.5×10^7 colony forming units per mL. Of these, 50 μL of peptide solution per well was mixed with 50 μL bacteria solution each to obtain an initial concentration of […] bacteria per well. After 20 hours of incubation at 37′C, the absorption was determined at 595 nm (microplate reader, Wallac Victor3, Perkin Elmer). The minimum inhibitory concentration was identified as the lowest peptide concentration at which no bacterial growth could be detected.
(§3) In the experiment, the antibacterial activity of the peptides according to the invention in relation to the following bacterial strains was analyzed: Pseudomonas aeruginosa PAO1 (wt strain), Pseudomonas aeruginosa DSM 9644, Staphylococcus aureus DSM 1104/ATCC 25923, Staphylococcus aureus ATCC 6247, Escherichia coli UB 1005 (F—, nalA37, metB1) and Escherichia coli ATCC25922.

[2] = test system: Staphylococcus aureus DSM 1104/ATCC 25923; conditions: for MIC S. aureus ATCC 25923: DSM 1104; for Improvement over Native Sequence (SEQ No. 2) S. aureus ATCC 25923: fold, from MIC in 1/8 MHB
Experimental: as §1, §2, §3

Escherichia coli UB 1005 = test: Minimum inhibitory concentration (MIC), broth microdilution; conditions: for Improvement over Native Sequence (SEQ No. 2) E. coli UB1005: fold, from MIC in 1/8 MHB; for MIC E. coli UB1005: 1/8 MHB, Table 4
Experimental: as §1, §2, §3

Compound	MIC P. aeruginosa PAO1 wt [1]	Improvement over Native Sequence (SEQ No. 2) P. aeruginosa PAO1 wt [1]	MIC S. aureus ATCC 25923 [2]	Improvement over Native Sequence (SEQ No. 2) S. aureus ATCC 25923 [2]	Improvement over Native Sequence (SEQ No. 2) E. coli UB1005 (Escherichia coli UB 1005)	MIC E. coli UB1005 (Escherichia coli UB 1005)
CC[C@H](C)[C@H](NC(=O)[C@H](Cc1ccc(O)cc1)NC(=O)[C@@H](NC(=O)[C@@H]1CCCN1C(=O)[C@H](CCCNC(=N)N)NC(=O)[C@H](CC(N)=O)NC(=O)[C@H](CC(N)=O)NC(=O)CN)C(C)C)C(=O)N1CCC[C@H]1C(=O)N[C@@H](CCC(N)=O)C(=O)N1CCC[C@H]1C(=O)N[C@@H](CCCNC(=N)N)C(=O)N1CCC[C@H]1C(=O)N1CCC[C@H]1C(=O)N[C@@H](Cc1c[nH]cn1)C(=O)N[C@@H](CS)C(=O)N[C@@H](CCCNC(=N)N)C(=O)N[C@@H](CC(C)C)C(N)=O [compound 61] (H-GNNRPVYIPQPRPPHCRL-NH2; N-terminus assumed)	125 µg/mL (≈ 59.1 µM)	4	32 µg/mL (≈ 15.1 µM)	8	0	–
CC[C@H](C)[C@H](NC(=O)[C@H](Cc1ccc(O)cc1)NC(=O)[C@@H](NC(=O)[C@@H]1CCCN1C(=O)[C@H](CCCNC(=N)N)NC(=O)[C@H](CC(N)=O)NC(=O)[C@H](CCCNC(=N)N)NC(=O)CN)C(C)C)C(=O)N1CCC[C@H]1C(=O)N[C@@H](CCC(N)=O)C(=O)N1CCC[C@H]1C(=O)N[C@@H](CCCNC(=N)N)C(=O)N1CCC[C@H]1C(=O)N1CCC[C@H]1C(=O)N[C@@H](Cc1c[nH]cn1)C(=O)N1CCC[C@H]1C(=O)N[C@@H](CCCNC(=N)N)C(=O)N[C@@H](CC(C)C)C(N)=O [compound 55] (H-GRNRPVYIPQPRPPHPRL-NH2; N-terminus assumed)	64 to 128 µg/mL	4-8	32 µg/mL (≈ 14.9 µM)	8	8	0.625 µg/mL (≈ 0.291 µM)
CC[C@H](C)[C@H](NC(=O)[C@H](Cc1ccc(O)cc1)NC(=O)[C@@H](NC(=O)[C@@H]1CCCN1C(=O)[C@H](CCCNC(=N)N)NC(=O)[C@H](CC(N)=O)NC(=O)[C@H](CC(N)=O)NC(=O)CN)C(C)C)C(=O)N1CCC[C@H]1C(=O)N[C@@H](CCC(N)=O)C(=O)N1CCC[C@H]1C(=O)N[C@@H](CCCNC(=N)N)C(=O)N1CCC[C@H]1C(=O)N1CCC[C@H]1C(=O)N[C@@H](Cc1c[nH]cn1)C(=O)N1CCC[C@H]1C(=O)N[C@@H](CCCNC(=N)N)C(=O)N[C@@H](CCCNC(=N)N)C(N)=O [compound 62] (H-GNNRPVYIPQPRPPHPRR-NH2; N-terminus assumed)	125 µg/mL (≈ 58.1 µM)	4	125 µg/mL (≈ 58.1 µM)	2	2-4	1.25 to 2.5 µg/mL
CC[C@H](C)[C@H](NC(=O)[C@H](Cc1ccc(O)cc1)NC(=O)[C@@H](NC(=O)[C@H](CS)NC(=O)[C@H](CCCNC(=N)N)NC(=O)[C@H](CC(N)=O)NC(=O)[C@H](CC(N)=O)NC(=O)CN)C(C)C)C(=O)N1CCC[C@H]1C(=O)N[C@@H](CCC(N)=O)C(=O)N1CCC[C@H]1C(=O)N[C@@H](CCCNC(=N)N)C(=O)N1CCC[C@H]1C(=O)N1CCC[C@H]1C(=O)N[C@@H](Cc1c[nH]cn1)C(=O)N1CCC[C@H]1C(=O)N[C@@H](CCCNC(=N)N)C(=O)N[C@@H](CC(C)C)C(N)=O [compound 56] (H-GNNRCVYIPQPRPPHPRL-NH2; N-terminus assumed)	125 µg/mL (≈ 59.1 µM)	4	31 µg/mL (≈ 14.7 µM)	8	1	10 µg/mL (≈ 4.73 µM)
